SMILES strings stand for the structures. Where a name gives a salt, the structure may show the parent alone.

Here are results for one compound from paper PMC6582940 (Molecular pharmaceutics, 2018).

This assay addresses ABCB1 (Homo sapiens, UniProt P08183). The assay can be described thus: competition of […]IAAP photoaffinity labeling in ABCB1 membranes. The format is binding.

Sequence of ABCB1 (P08183 whole entry): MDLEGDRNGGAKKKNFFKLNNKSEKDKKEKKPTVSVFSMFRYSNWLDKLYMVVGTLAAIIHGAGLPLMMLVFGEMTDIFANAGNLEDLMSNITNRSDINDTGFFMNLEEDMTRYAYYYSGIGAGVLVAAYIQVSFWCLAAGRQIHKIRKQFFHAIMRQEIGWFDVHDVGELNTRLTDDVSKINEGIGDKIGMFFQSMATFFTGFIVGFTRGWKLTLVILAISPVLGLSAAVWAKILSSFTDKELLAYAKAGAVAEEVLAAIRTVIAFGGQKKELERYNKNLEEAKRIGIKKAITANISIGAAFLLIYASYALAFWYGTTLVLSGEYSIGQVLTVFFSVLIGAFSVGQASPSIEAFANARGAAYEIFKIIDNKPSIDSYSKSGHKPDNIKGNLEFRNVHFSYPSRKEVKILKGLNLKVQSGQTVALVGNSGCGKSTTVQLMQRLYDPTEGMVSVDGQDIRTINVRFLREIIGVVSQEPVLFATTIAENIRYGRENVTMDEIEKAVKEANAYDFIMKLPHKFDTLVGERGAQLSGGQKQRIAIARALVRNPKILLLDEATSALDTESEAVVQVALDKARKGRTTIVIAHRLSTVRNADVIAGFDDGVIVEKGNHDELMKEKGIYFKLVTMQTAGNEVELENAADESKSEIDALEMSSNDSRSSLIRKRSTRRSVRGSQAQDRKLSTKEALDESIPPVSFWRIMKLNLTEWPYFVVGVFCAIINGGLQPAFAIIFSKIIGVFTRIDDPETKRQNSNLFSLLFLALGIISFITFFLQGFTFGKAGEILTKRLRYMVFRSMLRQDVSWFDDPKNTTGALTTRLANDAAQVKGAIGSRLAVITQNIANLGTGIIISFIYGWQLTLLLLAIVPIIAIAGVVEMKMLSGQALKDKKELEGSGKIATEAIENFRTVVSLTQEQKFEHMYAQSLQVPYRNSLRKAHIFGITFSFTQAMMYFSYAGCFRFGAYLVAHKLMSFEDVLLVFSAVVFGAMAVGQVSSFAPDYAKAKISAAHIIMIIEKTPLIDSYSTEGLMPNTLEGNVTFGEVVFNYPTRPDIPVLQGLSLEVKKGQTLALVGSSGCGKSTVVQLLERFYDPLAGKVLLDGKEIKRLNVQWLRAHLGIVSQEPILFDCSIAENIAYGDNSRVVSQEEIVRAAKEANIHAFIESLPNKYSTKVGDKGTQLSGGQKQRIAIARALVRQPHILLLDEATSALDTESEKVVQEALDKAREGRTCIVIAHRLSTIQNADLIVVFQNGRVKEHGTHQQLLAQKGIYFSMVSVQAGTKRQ

Regarding `COc1ccc(CCC2c3cc(OCc4ccccc4)c(OC)cc3CCN2C)cc1OCc1ccccc1` (racemic) [isoquinoline 2, (±)-7-benzyloxy-1-(3-benzyloxy-4-methoxyphenethyl)-1,2,3,4-tetrahydro-6-methoxy-2-methylisoquinoline oxalate], the IC50 came out at 63 ± 12 nM.
